Consider 12 compounds from ChEMBL document CHEMBL3098130, “Discovery of Novel Putative Inhibitors of UDP-GlcNAc 2-Epimerase as Potent Antibacterial Agents” (ACS Med Chem Lett, 2013).

What all share (format): functional
Holding throughout (settings): read-out: GI

Test [1] has as its system Staphylococcus aureus. Kind of test: Antibacterial activity against methicillin-resistant Staphylococcus aureus assessed as growth inhibition at 10 uM measured every 2 mins for 16 to 20 hrs by spectramax 96-well plate reader analysis.
In test [2] the test system is Staphylococcus aureus. Kind of test: Antibacterial activity against methicillin-resistant Staphylococcus aureus assessed as growth inhibition at 30 uM measured every 2 mins for 16 to 20 hrs by spectramax 96-well plate reader analysis.
The test system of test [3] is Bacillus anthracis. Kind of test: Antibacterial activity against Bacillus anthracis Sterne assessed as growth inhibition at 3 uM measured every 2 mins for 16 to 20 hrs by spectramax 96-well plate reader analysis.
The subject of test [4] is Bacillus anthracis. Kind of test: Antibacterial activity against Bacillus anthracis Sterne assessed as growth inhibition at 10 uM measured every 2 mins for 16 to 20 hrs by spectramax 96-well plate reader analysis.
In test [5] the test system is Bacillus anthracis. Kind of test: Antibacterial activity against Bacillus anthracis Sterne assessed as growth inhibition at 30 uM measured every 2 mins for 16 to 20 hrs by spectramax 96-well plate reader analysis.
Test [6] deals with Staphylococcus aureus. Kind of test: Antibacterial activity against methicillin-resistant Staphylococcus aureus assessed as growth inhibition at 3 uM measured every 2 mins for 16 to 20 hrs by spectramax 96-well plate reader analysis.

Molecules are shown by their SMILES.

Consider `O=C(O)C(Cc1ccccc1)N1C(=O)/C(=C\c2ccc(-c3ccc(Br)c(Cl)c3)s2)NC1=S` (centres undefined), for which the inhibition of growth at 10 µM with Staphylococcus aureus [1] and with Bacillus anthracis [4] was 10% in each case. In addition, the inhibition of growth at 30 µM with Staphylococcus aureus [2] amounted to 0%; in the test with Bacillus anthracis [5], 90%. Besides, the inhibition of growth at 3 µM in the test on Bacillus anthracis [3] came out at 20%.

Regarding `O=C(O)C(Cc1ccccc1)N1C(=O)/C(=C\c2ccc(-c3cc(Cl)cc(Cl)c3)o2)NC1=S` (centres undefined), the inhibition of growth at 3 µM in the test on Staphylococcus aureus [6] and in the test with Bacillus anthracis [3] was 0% in each case. Besides, the inhibition of growth at 10 µM in the test on Staphylococcus aureus [1] amounted to 10%; in the test with Bacillus anthracis [4] it was 0%. Further, the inhibition of growth at 30 µM came to 90% with Staphylococcus aureus [2] and 100% in the test with Bacillus anthracis [5].

`COc1ccc(-c2ccc(/C=C3/NC(=S)N(C(Cc4ccccc4)C(=O)O)C3=O)o2)cc1Cl` (centres undefined): the inhibition of growth at 3 µM in the test on Staphylococcus aureus [6] came out at 10%; with Bacillus anthracis [3] it was 0%. The inhibition of growth at 10 µM came out at 10% in the test on Staphylococcus aureus [1] and 30% with Bacillus anthracis [4]. Besides, the inhibition of growth at 30 µM came out at 80% in the test with Staphylococcus aureus [2] and 100% with Bacillus anthracis [5].

Consider `O=C1NC(=S)NC(=O)C1=Cc1ccc(-c2ccc(Br)c(Cl)c2)o1`, for which the inhibition of growth at 30 µM in the test with Bacillus anthracis [5] came to 96.6%.

Consider `O=C1Nc2ccccc2/C1=C1/SC(=S)N(C(Cc2ccccc2)C(=O)O)C1=O` (centres undefined), for which, in the test on Bacillus anthracis [5], the inhibition of growth at 30 µM turned out to be 99.7%.

As to `CCC(C(=O)O)N1C(=O)/C(=C\c2ccc(-c3ccc(Cl)c(Cl)c3)o2)NC1=S` (centres undefined), the inhibition of growth at 3 µM with Staphylococcus aureus [6] and in the test with Bacillus anthracis [3] was 0% throughout. In addition, the inhibition of growth at 10 µM in the test on Staphylococcus aureus [1] came out at 0%; in the test on Bacillus anthracis [4], 100%. The inhibition of growth at 30 µM in the test with Staphylococcus aureus [2] and in the test on Bacillus anthracis [5] was 90% in each case.

With `NC(=O)C(Cc1ccccc1)N1C(=O)/C(=C\c2ccc(-c3ccc(Cl)c(Cl)c3)o2)NC1=S` (centres undefined), the values for the inhibition of growth at 3 µM with Staphylococcus aureus [6] and in the test on Bacillus anthracis [3] were 0% and 20%, respectively. The inhibition of growth at 10 µM was found to be 30% in the test with Staphylococcus aureus [1] and 90% in the test with Bacillus anthracis [4]. For the same compound, the inhibition of growth at 30 µM turned out to be 60% with Staphylococcus aureus [2] and 90% with Bacillus anthracis [5].

Turning to `CCOC(=O)C(Cc1ccccc1)N1C(=O)/C(=C\c2ccc(-c3ccc(Cl)c(Cl)c3)o2)NC1=S` (centres undefined), the inhibition of growth at 10 µM in the test on Staphylococcus aureus [1] came out at 0%; with Bacillus anthracis [4], 50%. Besides, the inhibition of growth at 30 µM with Staphylococcus aureus [2] and with Bacillus anthracis [5] was 0% throughout.

For `N#CNC(=O)C(Cc1ccccc1)N1C(=O)/C(=C\c2ccc(-c3ccc(Cl)c(Cl)c3)o2)NC1=S` (centres undefined), the inhibition of growth at 3 µM with Staphylococcus aureus [6] and in the test with Bacillus anthracis [3] was 0% throughout. Also, the figures for the inhibition of growth at 10 µM in the test with Staphylococcus aureus [1] and with Bacillus anthracis [4] were 0% and 100%, respectively. Besides, the inhibition of growth at 30 µM with Staphylococcus aureus [2] and in the test with Bacillus anthracis [5] was 100% each time.

Consider `CS(=O)(=O)NC(=O)C(Cc1ccccc1)N1C(=O)/C(=C\c2ccc(-c3ccc(Cl)c(Cl)c3)o2)NC1=S` (centres undefined), for which the inhibition of growth at 3 µM in the test with Staphylococcus aureus [6] was found to be 0%; in the test on Bacillus anthracis [3], 40%. Further, the results for the inhibition of growth at 10 µM in the test on Staphylococcus aureus [1] and with Bacillus anthracis [4] were 30% and 100%, respectively. Also, the figures for the inhibition of growth at 30 µM with Staphylococcus aureus [2] and in the test on Bacillus anthracis [5] were 60% and 90%, respectively.

Take `O=C(NS(=O)(=O)C(F)(F)F)C(Cc1ccccc1)N1C(=O)/C(=C\c2ccc(-c3ccc(Cl)c(Cl)c3)o2)NC1=S` (centres undefined): the inhibition of growth at 3 µM with Staphylococcus aureus [6] came out at 0%; in the test with Bacillus anthracis [3] it was 70%. The values for the inhibition of growth at 10 µM in the test on Staphylococcus aureus [1] and with Bacillus anthracis [4] were 80% and 100%, respectively. Also, the inhibition of growth at 30 µM in the test with Staphylococcus aureus [2] stood at 90%; in the test on Bacillus anthracis [5], 100%.

Regarding `CCC(C(=O)NS(C)(=O)=O)N1C(=O)/C(=C\c2ccc(-c3ccc(Cl)c(Cl)c3)o2)NC1=S` (centres undefined), the inhibition of growth at 3 µM worked out at 0% with Staphylococcus aureus [6] and 10% in the test with Bacillus anthracis [3]. Moreover, the inhibition of growth at 10 µM in the test on Staphylococcus aureus [1] and in the test on Bacillus anthracis [4] was 0% in each case. Moreover, the inhibition of growth at 30 µM in the test with Staphylococcus aureus [2] turned out to be 0%; with Bacillus anthracis [5] it was 20%.
